Test results from patent US9474703B2, “Antimicrobial compositions containing cationic active ingredients and quaternary sugar derived surfactants” (Ecolab USA Inc., priority 2010, dated 2016).

Columns and labels:
[1] = tested on: Staphylococcus aureus ATCC 6538; experiment: Time kill method (ASTM E 2315), S. aureus; format: cell-based; settings: 0.5% ADBAC Quat
Method: (§1) (1) Determination of Time Kill Activity: • (a) The activity of antimicrobial compositions was measured by the time kill method [ASTM E 2315 Standard Guide for Assessment of Antimicrobial Activity Using a Time Kill Procedure], whereby the survival of challenged organisms exposed to an antimicrobial test composition is […] as a function of time. In this test, a diluted aliquot of the composition is brought into contact with a known population of test bacteria for a specified time period at a specified temperature. The test composition is neutralized at the end of the time period, which arrests the antimicrobial activity of the composition. The percent or, alternatively, log reduction from the original bacteria population is calculated. In general, the time kill method is known to those skilled in the art. In addition, comparative data on the foam profile of representative systems is shown. • (b) The composition can be tested at any concentration from 0.01-100%. The choice of which concentration to use is at the discretion of the investigator, and suitable concentrations are readily determined by those skilled in the art. All testing if performed in triplicate, the results are combined, and the average log reduction is reported. • (c) The choice of contact time period also is at the discretion of the investigator. Any contact time period can be chosen. Typical contact times range from 15 second to 5 minutes, with 30 seconds and 1 minute being typical contact times. The contact temperature also can be any temperature, typically room temperature, or about 25 degrees Celsius. • (d) The microbial suspension, or test inoculum, is prepared by growing a microbial culture on any appropriate solid media (e.g., agar). The microbial population then is washed from the agar with sterile physiological saline and the population of the microbial suspension is adjusted to about 10^8 colony forming units per ml (cfu/ml). • (e) The table below lists the test microbial cultures used in the following tests and includes the name of the bacteria, the ATCC (American Type Culture Collection) identification number, and the abbreviation for the name of the organism used hereafter.
(§2) S. aureus is a Gram positive bacteria, whereas, E. coli is a Gram negative bacteria.
(§3) The log reduction is calculated using the formula: Log reduction=log10(numbers control)−log10(test sample survivors).
(§4) The following table correlates percent reduction in microbial population to log reduction: […]

[2] = tested on: Escherichia coli ATCC 112229; experiment: Time kill method (ASTM E 2315), E. coli; format: cell-based; settings: 0.5% ADBAC Quat
Method: as §1, §2, §3, §4

[3] = Table 10, 1.25% w/w quaternized sugar-derived surfactant, 1.95% Alkyl Dimethyl Amine Oxide
[4] = 30 seconds exposure, 1.95% w/w foam boosting agent (amine oxide), 1.25% Poly Trimoniumhydroxypropyl Cocoglucosides Chloride
[5] = 30 seconds exposure, 3.0% w/w foam boosting agent (amine oxide), 1.25% Poly Trimoniumhydroxypropyl Cocoglucosides Chloride
[6] = 30 seconds exposure, 4.2% w/w foam boosting agent (amine oxide), 1.25% Poly Trimoniumhydroxypropyl Cocoglucosides Chloride

Row | Substance | S. aureus Log Reduction [1, 3] | E. coli Log Reduction [2, 3] | also measured
1 | Laurylglucosides Hydroxypropyl-trimonium Chloride [TM1212] | >5.0 | >5.0 | 
2 | Alkyl Dimethyl Amine Oxide |  |  | S. aureus Log Reduction [1, 4]: >5.5; S. aureus Log Reduction [1, 5]: >5.5; S. aureus Log Reduction [1, 6]: >5.5; E. coli Log Reduction [2, 4]: >5.5; E. coli Log Reduction [2, 5]: >5.5; E. coli Log Reduction [2, 6]: >5.5
3 | Cocoglucosides Hydroxypropyl-trimonium Chloride [TM8610] | >5.0 | >5.0 | 
4 | Lauridimonium-hydroxypropyl Cocoglucosides Chloride [Formula L8610] | >5.0 | >5.0 | 
5 | Stearyldimonium-hydroxypropyl Laurylglucosides Chloride [Formula S1218] | >5.0 | >5.0 | 
6 | Lauridimonium-hydroxypropyl Laurylglucosides Chloride [Formula L1210] | >5.0 | >5.0 | 
